From PubChem BioAssay (NCI)
Values joined by “and” are separate entries in the source; they are usually repeats but may differ in a detail not shown here. Identical values can stand only once.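 Briefly, cells in 96-well plates were exposed to five compound concentrations for 48 h, and endpoints were estimated by linear interpolation. At the GI50, growth is halved. Definition used: TGI = concentration required for complete inhibition of growth.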

Key:
Assay in all cases: growth of human tumour cells (NCI), 48 h
OVCAR-5 ovarian = test system: OVCAR-5 ovarian
KM12 colon = test system: KM12 colon
HS 578T breast = test system: HS 578T breast
SR leukemia = test system: SR leukemia
NCI-H23 lung = test system: NCI-H23 lung
HOP-62 NSCLC = test system: HOP-62 NSCLC
UACC-62 melanoma = test system: UACC-62 melanoma
PC-3 prostate = test system: PC-3 prostate
DU-145 prostate = test system: DU-145 prostate
HCT-116 colon = test system: HCT-116 colon

| SMILES | TGI (OVCAR-5 ovarian) [µM] | TGI (KM12 colon) [µM] | TGI (HS 578T breast) [µM] | TGI (SR leukemia) [µM] | TGI (NCI-H23 lung) | TGI (HOP-62 NSCLC) | TGI (UACC-62 melanoma) | TGI (PC-3 prostate) [µM] | TGI (DU-145 prostate) [µM] | TGI (HCT-116 colon) [µM] | GI50 (OVCAR-5 ovarian) [µM] | GI50 (KM12 colon) [µM] | GI50 (HS 578T breast) [µM] | GI50 (SR leukemia) [µM] | GI50 (NCI-H23 lung) [µM] | GI50 (HOP-62 NSCLC) [µM] | GI50 (UACC-62 melanoma) [µM] | GI50 (PC-3 prostate) [µM] | GI50 (DU-145 prostate) [µM] | GI50 (HCT-116 colon) [µM] |
| --- | --- | --- | --- | --- | --- | --- | --- | --- | --- | --- | --- | --- | --- | --- | --- | --- | --- | --- | --- | --- |
| OCC1OC(n2cnc3c2NC=NC[C@H]3O)C(Cl)C1O (some centres undefined) | > 100 | > 100 | > 100 | > 100 | > 100 µM | > 100 µM | > 100 µM | > 100 | > 100 | > 100 | – | – | – | – | – | – | – | – | – | – |
| Cc1cc(NC(=S)SCc2ccc(F)cc2)c([N+](=O)[O-])cc1C | 54.7 | 44.6 | 46.6 | 43.9 | 99.4 µM | 68.1 µM | 31.3 µM | > 100 | > 100 | > 100 | – | – | – | – | – | – | – | – | – | – |
| CCOC(=O)C1SC(=Nc2ccc(C)c(C)c2)N=C1C (centres undefined) | > 100 | > 100 | – | > 100 | > 100 µM | > 100 µM | > 100 µM | – | – | – | – | – | – | – | – | – | – | – | – | – |
| Nc1nc(Nc2cccnc2)sc1C(=O)c1ccccc1F | 7.61 | 32.5 | 10.8 | – | 12.4 µM | > 93.8 µM | 5.34 µM | > 100 | > 100 | > 100 | 2.17 | 3.06 | 3.02 | 0.709 | 2.55 | 6.67 | 1.78 | 3.29 | 3.38 | 2.51 |
| CCOC(=O)N[C@@H]1C(CC(=O)OC)O[C@H]2OC(C)(C)O[C@H]21 (some centres undefined) | > 100 | > 100 | – | – | > 100 µM | > 100 µM | > 100 µM | – | – | – | – | – | – | – | – | – | – | – | – | – |
| C/C(=N\Nc1ccc(Cl)cn1)c1ccc2ccccc2n1 | > 100 | > 100 | > 100 | 36.1 | > 100 µM | > 100 µM | > 100 µM | > 100 | > 100 | > 100 | 5.44 | 3.15 | 4.78 | 1.68 | 3.55 | 2.83 | 3.25 | 3.44 | 4.03 | 1.59 |
| COc1ccc(CN2CC(C)(C)C2=O)c(OC)c1 | – | > 100 | – | – | > 100 µM | > 100 µM | > 100 µM | – | – | > 100 | – | – | – | – | – | – | – | – | – | – |
| CC12OC(C(=O)C13CC3)C1C(=O)c3ccc4c(ccc5ccccc54)c3C(=O)C12 (centres undefined) | > 100 | 59.5 | > 100 | – | > 100 µM | 99.8 µM | – | 80.7 | – | > 100 | 30.1 | 22.9 | 42.2 | – | 24.2 | 28.9 | – | 19 | – | 43.7 |
| Clc1cc(Cl)c2ns[s+]c2c1Cl | > 100 | > 100 | – | > 100 | 85.2 µM | > 100 µM | > 100 µM | – | – | > 100 | – | – | – | – | – | – | – | – | – | – |
| S=c1ssc(N2CCOCC2)c1Cl | > 100 | > 100 | – | 65.9 | > 100 µM | > 100 µM | > 100 µM | > 100 | 56.5 | – | > 100 | 31 | – | 13.3 | 29.1 | > 100 | 26.5 | 40.2 | 20.3 | – |
| CC(C)c1ccc(-c2cc(-c3cn[nH]c3-c3ccccn3)ccn2)cc1 | > 25 | > 25 | > 25 | – | > 25 µM | > 25 µM | > 25 µM | > 25 | > 25 | > 25 | > 16.6 | 9.83 | > 16.2 | – | 11.7 | 12 | 17.2 | 9 | 16 | 10.3 |
| CCOC(=O)/C(C)=C(/O)C(=O)OCC | > 100 | > 100 | – | – | > 100 µM | > 100 µM | > 100 µM | – | – | > 100 | – | – | – | – | – | – | – | – | – | – |
| COc1cc2[nH]c3c(c2cc1OC)CCN[C@]31CC[C@]2(CC3c4c(cc(OC)c(O)c42)CCN3C)C[C@H]1OC (some centres undefined) | > 100 | 35.6 | – | 40 | > 100 µM | 48 µM | 49 µM | – | – | 31.6 | – | – | – | – | – | – | – | – | – | – |
| COc1ccc(-c2nc3ccccn3c2/C=C/C(=O)c2cc(OC)c(OC)c(OC)c2)cc1OC | 53.3 | 11.4 | 9.82 | – | > 100 µM | 30 µM | 22.1 µM | > 100 | 8.14 | 12 | 7.38 | 2.52 | 1.85 | – | 3.78 | 4.42 | 4.86 | 3.71 | 2.63 | 2.62 |
| CC1=C(/C=C/Cl)CC(Cl)C(C)(Cl)C1 (centres undefined) | > 100 | > 100 | > 100 | > 100 | > 100 µM | – | > 100 µM | > 100 | > 100 | > 100 | – | – | – | – | – | – | – | – | – | – |
| COc1cc(/C=C/c2ccc(OC)c(O)c2)cc(OC)c1 | 89.1 | 28.3 | – | – | 12.5 µM | 15.4 µM | 15.1 µM | – | – | 12.3 | – | – | – | – | – | – | – | – | – | – |
| C=CCCCCC/C=C\[C@@H](O)C#CC#C/C=C/CO | > 100 | > 100 | > 100 | – | > 100 µM | > 100 µM | > 100 µM | > 100 | > 100 | > 100 | > 100 | 77.5 | > 100 | – | 43.6 | > 100 | > 100 | 28 | > 100 | 45.7 |
| COc1cc(Cc2nccc3cc(OC)c(OC)cc23)c(C(C)=O)cc1OC | > 750 | 300 | – | > 750 | 300 µM and > 750 µM | 135 µM and 394 µM | 219 µM and > 750 µM | – | – | – | 204 | 106 | – | – | 67.1 | 101 | – | – | – | – |
